Measured values from patent US12486301B2, “8-fluoro-4-alkylumbelliferyl α-D-glucopyranoside, biological sterilization indicator including the same and its use in a method of determining efficacy of a sterilization process” (Solventum Intellectual Properties Company, priority 2019, dated 2025).

Assay: Enzyme substrate degradation in culture media at various temperatures (fluorescence)
Format: physicochemical
Conditions: 0.3 mg/mL; for MEASURED FLUORESCENCE, RFU 70° C. 15 min: 70° C. dry heat block 15 min; for MEASURED FLUORESCENCE, RFU 100° C. 15 + 15 min: 100° C. 15 min, second time 15 min; for MEASURED FLUORESCENCE, RFU 100° C. 15 min: 100° C. heat block 15 min; for MEASURED FLUORESCENCE, RFU RT 15 min: room temperature (24.5° C.)
Procedure: Culture media was prepared by dissolving 5 g/L peptone C (BD 211921) and 12 g/L phytone peptone (BD BBL 211906) in deionized water. The pH was adjusted with 1 N NaOH or 0.1 N HCl, the media brought to volume, and then filter sterilized with a 0.22 micron PES filter. Stock solutions ([…]) of 8′-fluoro-4′-methylumbelliferyl-α-D-glucopyranoside, 6′-fluoro-4′-methylumbelliferyl-α-D-glucopyranoside, and 4-methylumbelliferyl-α-D-glucopyranoside were prepared in DMSO. The aforementioned substrates were added to culture media at a final concentration of 0.1 mg/ml and media were then 0.22 μm filter sterilized.
(§1) One milliliter of filter-sterilized culture media (pH 6) containing 0.3 mg/ml of 8′-fluoro-4′-methylumbelliferyl-[…]-D-glucopyranoside substrate was transferred to three 1.5 ml microcentrifuge tubes. One of the 1.5 ml tubes was kept at room temperature (24.5° C.). The second tube was placed in a 70° C. dry heat block for 15 min and the third tube was placed in a 100° C. heat block for 15 min. Tubes were kept at room temperature for 30 min following heat exposure, briefly vortexed and centrifuged to collect liquid. One hundred microliters of culture media with substrate from each of the tubes was transferred to two wells (100 microliters per well) of a black 96-well microtiter plate with (NUNC #165301, Thermo Fisher Scientific). The top of the plate was covered with an optically clear sealing film (product #4311971, Applied Biosystems Corporation). Fluorescence readings (360 nm excitation/455 nm emission at 50% gain) were taken from the top of the plate.
(§2) The tube exposed to 100° C. (with 800 ul of remaining media with substrate) was exposed for a second time to 100° C. for 15 min in a dry heat block. One hundred microliters of culture media with substrate from the tube was transferred to two wells (100 microliters per well) of a black 96-well microtiter plate with (NUNC #165301, Thermo Fisher Scientific). The top of the plate was covered with an optically clear sealing film (product #4311971, Applied Biosystems Corporation). Fluorescence readings (360 nm excitation/455 nm emission at 50% gain) were taken from the top of the plate. In Table 9, the mean fluorescence values detected (RFU) for each of the heating conditions are reported.
as §1, with “7)” for “6)”
as §2, with “10,” for “9,”, “reported. […]” for “reported.”

[1] = pH 6 culture media, no spores, 360 nm excitation/455 nm emission

Structure (SMILES)	MEASURED FLUORESCENCE, RFU 70° C. 15 min (pH 6 culture media) [RFU]	MEASURED FLUORESCENCE, RFU 100° C. 15 + 15 min (pH 6 culture media) [RFU]	MEASURED FLUORESCENCE, RFU 100° C. 15 min (pH 6 culture media) [RFU]	MEASURED FLUORESCENCE, RFU RT 15 min [1] [RFU]	MEASURED FLUORESCENCE, RFU 70° C. 15 min (pH 7 culture media) [RFU]	MEASURED FLUORESCENCE, RFU 100° C. 15 + 15 min (pH 7 culture media) [RFU]	MEASURED FLUORESCENCE, RFU 100° C. 15 min (pH 7 culture media) [RFU]	MEASURED FLUORESCENCE, RFU RT 15 min (pH 7 culture media) [RFU]	MEASURED FLUORESCENCE, RFU 70° C. 15 min (pH 8 culture media) [RFU]	MEASURED FLUORESCENCE, RFU 100° C. 15 + 15 min (pH 8 culture media) [RFU]	MEASURED FLUORESCENCE, RFU 100° C. 15 min (pH 8 culture media) [RFU]	MEASURED FLUORESCENCE, RFU RT 15 min (pH 8 culture media) [RFU]	MEASURED FLUORESCENCE, RFU 70° C. 15 min (pH 9 culture media) [RFU]	MEASURED FLUORESCENCE, RFU 100° C. 15 + 15 min (pH 9 culture media) [RFU]	MEASURED FLUORESCENCE, RFU 100° C. 15 min (pH 9 culture media) [RFU]	MEASURED FLUORESCENCE, RFU RT 15 min (pH 9 culture media) [RFU]
Cc1cc(=O)oc2c(F)c(O[C@H]3O[C@H](CO)[C@@H](O)[C@H](O)[C@H]3O)ccc12 [Example 1, 8′-Fluoro-4′-methylumbelliferyl […]-D-glucopyranoside]	799.5	1114.5	957.5	751.5	759.5	1529	1195	740.5	832	1543	1274	774	905.5	1770.5	1343.5	811.5
Cc1cc(=O)oc2cc(O[C@H]3O[C@H](CO)[C@@H](O)[C@H](O)[C@H]3O)c(F)cc12 [Example 6F-MUG, 6′-Fluoro-4′-methylumbelliferyl […]-D-glucopyranoside]	932.5	2005	1486.5	897.5	1012	2654.5	1690.5	924.5	1079.5	3160.5	2121.5	983	1218	3964	2728	994.5
Cc1cc(=O)oc2cc(O[C@H]3O[C@H](CO)[C@@H](O)[C@H](O)[C@H]3O)ccc12 [MUG, 4′-methylumbelliferyl-α-D-glucopyranoside]	774.5	888	829	751	809	893.5	862	671	823.5	939	857.5	788.5	862.5	1099	978.5	694
